Where two headings read alike, the source gives them in different places.
Tests used:
Assay type in all cases: cell-based, Escherichia coli
EKO-35-Pore = experiment: MIC susceptibility profiling, porinated strain; conditions: for Fold changes of MICs: EKO-35-Pore compared to EKO-35-Pore (reference); for MIC: Escherichia coli
Method in brief: (§1)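 MIC values come from background-corrected OD600 readings (pre-incubation OD subtracted) after 18 h at 37 °C and 900 rpm in MHB II. Compounds were tested in duplicate as 2-fold dilutions. The inoculum came from 18 h LB cultures adjusted to OD600 ~1.0 and diluted 1/2000, and the pore-bearing strains were vancomycin-checked beforehand.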

EKO-35 araC::acrD = experiment: MIC susceptibility profiling, efflux platform; conditions: for Fold change of MICs: EKO-35 araC::acrD compared to EKO-35; for MIC: Escherichia coli, read-out: Minimum Inhibitory Concentration, EKO-35 araC::acrD
Method in brief: (§2)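 Growth inhibition was scored by OD600, with readings taken before incubation subtracted from those after. Cells were grown in MHB II at 37 °C for 18 h with aeration, against duplicate 2-fold compound series and DMSO-only wells. Inoculum: PBS suspension at OD600 ~1.0 diluted 1/2000.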

[1] = tested on: EKO-35 araC::mexCD (MexCD from P. aeruginosa); experiment: MIC susceptibility profiling, efflux platform; conditions: for Fold change of MICs: EKO-35 araC::mexCD compared to EKO-35; for MIC: read-out: Minimum Inhibitory Concentration, EKO-35 araC::mexCD
Method in brief: as §2

EKO-35 araC::emrAB = experiment: MIC susceptibility profiling, efflux platform; conditions: for Fold change of MICs: EKO-35 araC::emrAB compared to EKO-35; for MIC: Escherichia coli, read-out: Minimum Inhibitory Concentration, EKO-35 araC::emrAB
Method in brief: as §2

EKO-35 araC::mdtBC = experiment: MIC susceptibility profiling, efflux platform; conditions: for Fold change of MICs: EKO-35 araC::mdtBC compared to EKO-35; for MIC: Escherichia coli, read-out: Minimum Inhibitory Concentration, EKO-35 araC::mdtBC
Method in brief: as §2

EKO-35 araC::acrEF = experiment: MIC susceptibility profiling, efflux platform; conditions: for Fold change of MICs: EKO-35 araC::acrEF compared to EKO-35; for MIC: Escherichia coli, read-out: Minimum Inhibitory Concentration, EKO-35 araC::acrEF
Method in brief: as §2

EKO-35 araC::macAB = experiment: MIC susceptibility profiling, efflux platform; conditions: for Fold change of MICs: EKO-35 araC::macAB compared to EKO-35; for MIC: Escherichia coli, read-out: Minimum Inhibitory Concentration, EKO-35 araC::macAB
Method in brief: as §2

EKO-35 araC::emrKY = experiment: MIC susceptibility profiling, efflux platform; conditions: for Fold change of MICs: EKO-35 araC::emrKY compared to EKO-35; for MIC: Escherichia coli, read-out: Minimum Inhibitory Concentration, EKO-35 araC::emrKY
Method in brief: as §2

EKO-35 araC::acrB = experiment: MIC susceptibility profiling, efflux platform; conditions: for Fold change of MICs: EKO-35 araC::acrB compared to EKO-35; for MIC: Escherichia coli, read-out: Minimum Inhibitory Concentration, EKO-35 araC::acrB
Method in brief: as §2

EKO-35 araC::acrBD408A = experiment: MIC susceptibility profiling, efflux platform; conditions: for Fold change of MICs: EKO-35 araC::acrBD408A compared to EKO-35; for MIC: Escherichia coli, read-out: Minimum Inhibitory Concentration, EKO-35 araC::acrBD408A
Method in brief: as §2

EKO-35 araC::mdtEF = experiment: MIC susceptibility profiling, efflux platform; conditions: for Fold change of MICs: EKO-35 araC::mdtEF compared to EKO-35; for MIC: Escherichia coli, read-out: Minimum Inhibitory Concentration, EKO-35 araC::mdtEF
Method in brief: as §2

ΔtolC-Pore = experiment: microbe, parasite or virus in culture; conditions: for MIC: Escherichia coli, 18 h, read-out: Minimum inhibitory concentration, ΔtolC-Pore; for Minimum inhibitory concentration (MIC), Pore ΔtolC: Table 10, with pore
Method in brief: as §1

wild-type (WT) K-12-Pore = experiment: microbe, parasite or virus in culture; conditions: for MIC: Escherichia coli
Method in brief: as §1

EKO-35 araC::emrAB Pore = experiment: MIC susceptibility profiling, porinated efflux platform; conditions: for Fold changes of MICs: EKO-35 araC::emrAB Pore compared to EKO-35-Pore; for MIC: Escherichia coli, read-out: Minimum inhibitory concentration
Method in brief: as §1

EKO-35 araC::acrEF Pore = experiment: as above; conditions: for Fold changes of MICs: EKO-35 araC::acrEF Pore compared to EKO-35-Pore; for MIC: Escherichia coli, read-out: Minimum inhibitory concentration, EKO-35 araC::acrEF Pore
Method in brief: as §1

[2] = tested on: EKO-35 araC::acrBD408A Pore; experiment: as above; conditions: for Fold changes of MICs: EKO-35 araC::acrBD408A Pore compared to EKO-35-Pore; for MIC: Escherichia coli, read-out: Minimum inhibitory concentration
Method in brief: as §1

EKO-35 araC::acrD Pore = experiment: as above; conditions: for Fold changes of MICs: EKO-35 araC::acrD Pore compared to EKO-35-Pore; for MIC: Escherichia coli, read-out: Minimum inhibitory concentration, EKO-35 araC::acrD Pore
Method in brief: as §1

EKO-35 araC::acrB Pore = experiment: as above; conditions: for Fold changes of MICs: EKO-35 araC::acr-B Pore compared to EKO-35-Pore
Method in brief: as §1

[3] = Table 14A, porinated, technical duplicate, read-out: Minimum inhibitory concentration, EKO-35-Pore
[4] = Table 13A, non-porinated, technical duplicate
[5] = Table 13B, non-porinated, technical duplicate
[6] = Table 10, with pore, technical duplicate, read-out: Minimum inhibitory concentration (MIC), Pore K-12
[7] = Table 14A, porinated, technical duplicate, read-out: Minimum inhibitory concentration, K-12 (WT)-Pore
[8] = EKO-35 araC::emrAB Pore, technical duplicate
[9] = Table 14A, porinated, technical duplicate
[10] = EKO-35 araC::acrBD408A Pore, technical duplicate
[11] = Table 10, with pore, technical duplicate

Row | Compound | Fold changes of MICs (EKO-35-Pore) | Fold change of MICs (EKO-35 araC::acrD) | Fold change of MICs [1] | MIC [1, 5] | Fold change of MICs (EKO-35 araC::emrAB) | Fold change of MICs (EKO-35 araC::mdtBC) | Fold change of MICs (EKO-35 araC::acrEF) | Fold change of MICs (EKO-35 araC::macAB) | Fold change of MICs (EKO-35 araC::emrKY) | Fold change of MICs (EKO-35 araC::acrB) | Fold change of MICs (EKO-35 araC::acrBD408A) | Fold change of MICs (EKO-35 araC::mdtEF) | MIC (ΔtolC-Pore) | Minimum inhibitory concentration (MIC), Pore ΔtolC (ΔtolC-Pore; technical duplicate) | Fold changes of MICs (EKO-35 araC::emrAB Pore) | Fold changes of MICs (EKO-35 araC::acrEF Pore) | Fold changes of MICs [2] | MIC [2, 10] | Fold changes of MICs (EKO-35 araC::acrD Pore) | Fold changes of MICs (EKO-35 araC::acrB Pore) | also measured
1 | O=C(N[C@H](CO)[C@H](O)c1ccc([N+](=O)[O-])cc1)C(Cl)Cl [chloramphenicol] | 1 fold | 2 fold | 1 fold | 0.781 µg/mL | 1 fold | 1 fold | 2 fold | 1 fold | 1 fold | 8 fold | 1 fold | 1 fold | 0.781 µg/mL | 0.781 µg/mL | 1 fold | 1 fold | 1 fold | 0.781 µg/mL | 1 fold | 4 fold | MIC (EKO-35-Pore; read-out: Minimum inhibitory concentration (MIC), Pore EKO-35): 0.781 µg/mL; MIC (EKO-35-Pore; [3]): 0.781 µg/mL; MIC (EKO-35 araC::acrD; [4]): 1.56 µg/mL; MIC (EKO-35 araC::emrAB; [5]): 0.781 µg/mL; MIC (EKO-35 araC::mdtBC; [5]): 0.781 µg/mL; MIC (EKO-35 araC::acrEF; [4]): 1.56 µg/mL; MIC (EKO-35 araC::macAB; [5]): 0.781 µg/mL; MIC (EKO-35 araC::emrKY; [5]): 0.391 µg/mL; MIC (EKO-35 araC::acrB; [4]): 6.25 µg/mL; MIC (EKO-35 araC::acrBD408A; [5]): 0.781 µg/mL; MIC (EKO-35 araC::mdtEF; [4]): 0.781 µg/mL; MIC (wild-type (WT) K-12-Pore; [6]): 3.12 µg/mL; MIC (wild-type (WT) K-12-Pore; [7]): 3.12 µg/mL; MIC (EKO-35 araC::emrAB Pore; [8]): 0.781 µg/mL; MIC (EKO-35 araC::acrEF Pore; [9]): 0.781 µg/mL; MIC (EKO-35 araC::acrD Pore; [9]): 0.781 µg/mL
2 | [H]/N=C(/N)N[C@H]1[C@H](O)[C@@H](O)[C@H](O[C@@H]2O[C@@H](C)[C@](O)(C=O)[C@H]2O[C@@H]2O[C@@H](CO)[C@H](O)[C@@H](O)[C@@H]2NC)[C@@H](N/C(N)=N\[H])[C@@H]1O [Streptomycin] | 1 fold | 2 fold | 1 fold | 3.12 µg/mL | 1 fold | 2 fold | 1 fold | 1 fold | 1 fold | 2 fold | 1 fold | 2 fold | 1.56 µg/mL | 1.563 µg/mL | 1 fold | 1 fold | 1 fold | 1.56 µg/mL | 1 fold | 2 fold | MIC (EKO-35-Pore; Table 10, with pore, technical duplicate, read-out: Minimum inhibitory concentration (MIC), Pore EKO-35): 3.12 µg/mL; MIC (EKO-35-Pore; [3]): 3.12 µg/mL; MIC (EKO-35 araC::acrD; [4]): 6.25 µg/mL; MIC (EKO-35 araC::emrAB; [5]): 3.12 µg/mL; MIC (EKO-35 araC::mdtBC; [5]): 6.25 µg/mL; MIC (EKO-35 araC::acrEF; [4]): 3.12 µg/mL; MIC (EKO-35 araC::macAB; [5]): 3.12 µg/mL; MIC (EKO-35 araC::emrKY; [5]): 3.12 µg/mL; MIC (EKO-35 araC::acrB; [4]): 6.25 µg/mL; MIC (EKO-35 araC::acrBD408A; [5]): 3.12 µg/mL; MIC (EKO-35 araC::mdtEF; [4]): 6.25 µg/mL; MIC (wild-type (WT) K-12-Pore; [6]): 12.5 µg/mL; MIC (wild-type (WT) K-12-Pore; [7]): 12.5 µg/mL; MIC (EKO-35 araC::emrAB Pore; [8]): 3.12 µg/mL; MIC (EKO-35 araC::acrEF Pore; [9]): 3.12 µg/mL; MIC (EKO-35 araC::acrD Pore; [9]): 3.12 µg/mL; MIC (EKO-35 araC::acrB Pore; Escherichia coli, Table 14A, porinated, technical duplicate, read-out: Minimum inhibitory concentration, EKO-35 araC::acrB Pore): 6.25 µg/mL
3 | O=c1oc(-c2ccccc2Cl)nn1-c1ccc(C(F)(F)F)cn1 [compound 5] | 1 fold | 2 fold | 16 fold |  | 16 fold | 1 fold | 16 fold | 1 fold | 1 fold | 16 fold | 1 fold | 16 fold |  | 2.5 µg/mL | 16 fold | 16 fold | 1 fold |  | 1 fold | 16 fold | Minimum inhibitory concentration (MIC), Pore EKO-35 (EKO-35-Pore; [11]): 20 µg/mL; Minimum inhibitory concentration, EKO-35-Pore (EKO-35-Pore; [9]): 20 µg/mL; Minimum Inhibitory Concentration, EKO-35 araC::acrD (EKO-35 araC::acrD; [4]): 40 µg/mL; Minimum Inhibitory Concentration, EKO-35 araC::mexCD [1, 5]: 320 µg/mL; Minimum Inhibitory Concentration, EKO-35 araC::emrAB (EKO-35 araC::emrAB; [5]): 320 µg/mL; Minimum Inhibitory Concentration, EKO-35 araC::mdtBC (EKO-35 araC::mdtBC; [5]): 10 µg/mL; Minimum Inhibitory Concentration, EKO-35 araC::acrEF (EKO-35 araC::acrEF; [4]): 320 µg/mL; Minimum Inhibitory Concentration, EKO-35 araC::macAB (EKO-35 araC::macAB; [5]): 20 µg/mL; Minimum Inhibitory Concentration, EKO-35 araC::emrKY (EKO-35 araC::emrKY; [5]): 20 µg/mL; Minimum Inhibitory Concentration, EKO-35 araC::acrB (EKO-35 araC::acrB; [4]): 320 µg/mL; Minimum Inhibitory Concentration, EKO-35 araC::acrBD408A (EKO-35 araC::acrBD408A; [5]): 20 µg/mL; Minimum Inhibitory Concentration, EKO-35 araC::mdtEF (EKO-35 araC::mdtEF; [4]): 320 µg/mL; Minimum inhibitory concentration, ΔtolC-Pore (ΔtolC-Pore; [9]): 2.5 µg/mL; Minimum inhibitory concentration (MIC), Pore K-12 (wild-type (WT) K-12-Pore; [11]): 320 µg/mL; Minimum inhibitory concentration, K-12 (WT)-Pore (wild-type (WT) K-12-Pore; [9]): 320 µg/mL; Minimum inhibitory concentration (EKO-35 araC::emrAB Pore; [8]): 320 µg/mL; Minimum inhibitory concentration, EKO-35 araC::acrEF Pore (EKO-35 araC::acrEF Pore; [9]): 320 µg/mL; Minimum inhibitory concentration [2, 10]: 20 µg/mL; Minimum inhibitory concentration, EKO-35 araC::acrD Pore (EKO-35 araC::acrD Pore; [9]): 10 µg/mL; Minimum inhibitory concentration, EKO-35 araC::acrB Pore (EKO-35 araC::acrB Pore; [9]): 320 µg/mL
4 | NCCCNCCCCNCCCN [Spermine] | 1 fold | 1 fold | 1 fold | 2000 µg/mL | 1 fold | 1 fold | 1 fold | 1 fold | 1 fold | 1 fold | 1 fold | 1 fold | 2000 µg/mL | 2000 µg/mL | 1 fold | 1 fold |  | 500 µg/mL | 1 fold | 1 fold | MIC (wild-type (WT) K-12-Pore; read-out: Minimum inhibitory concentration (MIC), Pore K-12): 2000 µg/mL; MIC (wild-type (WT) K-12-Pore; read-out: Minimum inhibitory concentration, K-12 (WT)-Pore): 2000 µg/mL

Reference: patent publication US20230407243A1, “GENETIC PLATFORM TO INVESTIGATE THE FUNCTIONS OF BACTERIAL DRUG EFFLUX PUMPS” (priority 2022, published 2023)
